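Tested at 5 concentrations; 48 h exposure; 96-well plates; endpoints linearly interpolated, else capped at highest concentration. Definition used: TGI = concentration required for complete inhibition of growth.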
Tests used:
Experiment in all cases: DTP human tumour cell line panel, 48 h
HS 578T breast = test system: HS 578T breast
CAKI-1 renal = test system: CAKI-1 renal
MALME-3M melanoma = test system: MALME-3M melanoma
EKVX NSCLC = test system: EKVX NSCLC
SF-539 CNS = test system: SF-539 CNS
SK-OV-3 ovarian = test system: SK-OV-3 ovarian
UACC-257 melanoma = test system: UACC-257 melanoma
OVCAR-8 ovarian = test system: OVCAR-8 ovarian
MDA-MB-231 breast = test system: MDA-MB-231 breast
SNB-19 CNS = test system: SNB-19 CNS
TK-10 renal = test system: TK-10 renal
M14 melanoma = test system: M14 melanoma
SW-620 colon = test system: SW-620 colon
UO-31 renal = test system: UO-31 renal
OVCAR-3 ovarian = test system: OVCAR-3 ovarian
HOP-62 NSCLC = test system: HOP-62 NSCLC
ACHN renal = test system: ACHN renal

| Compound | TGI (HS 578T breast) | TGI (CAKI-1 renal) | TGI (MALME-3M melanoma) | TGI (EKVX NSCLC) | TGI (SF-539 CNS) | TGI (SK-OV-3 ovarian) | TGI (UACC-257 melanoma) | TGI (OVCAR-8 ovarian) | TGI (MDA-MB-231 breast) | TGI (SNB-19 CNS) | TGI (TK-10 renal) | TGI (M14 melanoma) | TGI (SW-620 colon) | TGI (UO-31 renal) | TGI (OVCAR-3 ovarian) | TGI (HOP-62 NSCLC) | TGI (ACHN renal) |
| --- | --- | --- | --- | --- | --- | --- | --- | --- | --- | --- | --- | --- | --- | --- | --- | --- | --- |
| S=c1[nH]n2c(COc3cc(Cl)c(OCc4nnc5sc(=S)[nH]n45)cc3Cl)nnc2s1 | > 100 µM | > 100 µM | > 100 µM | > 100 µM | > 100 µM | > 100 µM | > 100 µM | > 100 µM | > 100 µM | > 100 µM | > 100 µM | > 100 µM | > 100 µM | 86.4 µM | > 100 µM | > 100 µM | > 100 µM |
| O=C(O)C1(C(O)c2ccccc2)SCCCS1 (configuration not stated) | > 10 µM | – | > 10 µM | > 10 µM | > 10 µM | > 10 µM | > 10 µM | > 10 µM | > 10 µM | > 10 µM | > 10 µM | > 10 µM | > 10 µM | > 10 µM | > 10 µM | > 10 µM | > 10 µM |
| CCCCCCCc1ccc(-c2nnc(N=Nc3ccc(OCCCCC)cc3)s2)s1 | > 100 µM | > 100 µM | > 100 µM | > 100 µM | > 100 µM | > 100 µM | > 100 µM | – | > 100 µM | > 100 µM | > 100 µM | > 100 µM | > 100 µM | > 100 µM | > 100 µM | > 100 µM | > 100 µM |
| CCOC(=O)C1C(c2ccc(OC)cc2)c2c([nH]n(-c3ccccc3)c2=O)CC1(C)O (configuration not stated) | > 100 µM | > 100 µM | > 100 µM | > 100 µM | > 100 µM | – | > 100 µM | > 100 µM | > 100 µM | > 100 µM | > 100 µM | > 100 µM | > 100 µM | > 100 µM | > 100 µM | > 100 µM | > 100 µM |
| Clc1ccc(C2=NCON=C2c2ccc(Cl)cc2)cc1 | 36.2 µM | 97.8 µM | 27.7 µM | 45.3 µM | 35.5 µM | 47.1 µM | 61.4 µM | 88.7 µM | 43.7 µM | > 100 µM | 66.3 µM | – | 50.1 µM | 40.7 µM | 46.6 µM | > 100 µM | 54.9 µM |
| COc1ccc(/C=N/Nc2nnc3c(n2)c2ccccc2c2nn(-c4ccccc4Cl)nc23)cc1 | > 100 µM | > 100 µM | > 100 µM | > 100 µM | – | > 100 µM | > 100 µM | > 100 µM | > 100 µM | > 100 µM | > 100 µM | > 100 µM | > 100 µM | > 100 µM | > 100 µM | > 100 µM | > 100 µM |
| CN(/N=C\c1ccc2ccccc2c1)C1=NCCCN1 | 42.1 µM | 22.7 µM | 26.4 µM | 53.8 µM | 40.3 µM | 98.3 µM | 23.6 µM | > 100 µM | 34.5 µM | – | 34.2 µM | – | 27.2 µM | 25.2 µM | 54.1 µM | 27.4 µM | 35.9 µM |
| CSc1nc(C)c2c(n1)N(c1ccc(Cl)cc1)CC2 | > 100 µM | > 100 µM | > 100 µM | > 100 µM | > 100 µM | > 100 µM | > 100 µM | > 100 µM | > 100 µM | > 100 µM | > 100 µM | > 100 µM | > 100 µM | – | > 100 µM | > 100 µM | > 100 µM |
| CC(=O)N1c2cc(N=NN(C)C)ccc2NC(=O)CC1C (configuration not stated) | > 100 µM | > 100 µM | > 100 µM | > 100 µM | – | > 100 µM | > 100 µM | > 100 µM | > 100 µM | > 100 µM | > 100 µM | > 100 µM | > 100 µM | > 100 µM | > 100 µM | > 100 µM | > 100 µM |
| O=S(=O)(O)c1cc(O)c(N=Nc2ccc3ccccc3c2O)c2ccccc12 | > 100 µM | 70.6 µM | 9.66 µM | > 100 µM | – | > 100 µM | 66.7 µM | – | 94.7 µM | > 100 µM | > 100 µM | 41.4 µM | > 100 µM | 65 µM | > 100 µM | > 100 µM | > 100 µM |
| CCOC(=O)c1cc2c3c(cc(OC)c2[nH]1)N(C(=O)OCC)CC3 | > 100 µM | > 100 µM | > 100 µM | > 100 µM | > 100 µM | > 100 µM | > 100 µM | > 100 µM | > 100 µM | > 100 µM | – | > 100 µM | > 100 µM | > 100 µM | > 100 µM | > 100 µM | – |
| CC[C@@]12CCC(=S)N(CCSc3ccccc3)[C@@H]1c1c(n(S(=O)(=O)c3ccc(OC)cc3)c3ccccc13)CC2 | > 100 µM | > 100 µM | > 100 µM | > 100 µM | > 100 µM | > 100 µM | > 100 µM | > 100 µM | > 100 µM | > 100 µM | > 100 µM | > 100 µM | > 100 µM | > 100 µM | > 100 µM | > 100 µM | – |
| COc1ccc(CC[N+]2(C)COc3cc4oc(=O)cc(C)c4cc3C2)cc1OC (configuration not stated) | > 100 µM | > 100 µM | > 100 µM | > 100 µM | – | > 100 µM | > 100 µM | > 100 µM | > 100 µM | > 100 µM | > 100 µM | > 100 µM | > 100 µM | > 100 µM | > 100 µM | > 100 µM | > 100 µM |
| Cn1c(=O)c2c(nc(N/N=C3/SCC(=O)N3Cc3ccccc3)n2C)n(C)c1=O | > 100 µM | > 100 µM | > 100 µM | > 100 µM | > 100 µM | > 100 µM | > 100 µM | > 100 µM | > 100 µM | > 100 µM | > 100 µM | > 100 µM | – | > 100 µM | 90.4 µM | > 100 µM | > 100 µM |

— PubChem BioAssay (NCI)
